{
  "source": "paper PMC3222680",
  "about": "(PLoS ONE, 2011)",
  "assay_type_in_all_cases": "cell-based",
  "key": {"αWT α-βWT GlyR": {"molecular_target": "T1, αWT α-βWT GlyR (Homo sapiens, UniProt P23415+P48167, A277S/A316I/A325S/DEL290-297/G282P/I253M/I257A/I264V/I268L/I311L/I313V/INS301ECTTLAAE/L252M/L327V/M248V/M255V/M274P/M315L/P278A/Q254G/R299L/S259T/S324A/T286F/T287S/V317A/V322G/Y250F)", "T1 construct": "The α R218-Q219 and β R242-Q243 are also the joining sites for chimeras constructed between the ECD and TMD; expressed in transfected cells; host or cells: HEK293 (ATCC)", "T1 sequence (P23415 29-449 isoform P23415-2, stated change not applied)": "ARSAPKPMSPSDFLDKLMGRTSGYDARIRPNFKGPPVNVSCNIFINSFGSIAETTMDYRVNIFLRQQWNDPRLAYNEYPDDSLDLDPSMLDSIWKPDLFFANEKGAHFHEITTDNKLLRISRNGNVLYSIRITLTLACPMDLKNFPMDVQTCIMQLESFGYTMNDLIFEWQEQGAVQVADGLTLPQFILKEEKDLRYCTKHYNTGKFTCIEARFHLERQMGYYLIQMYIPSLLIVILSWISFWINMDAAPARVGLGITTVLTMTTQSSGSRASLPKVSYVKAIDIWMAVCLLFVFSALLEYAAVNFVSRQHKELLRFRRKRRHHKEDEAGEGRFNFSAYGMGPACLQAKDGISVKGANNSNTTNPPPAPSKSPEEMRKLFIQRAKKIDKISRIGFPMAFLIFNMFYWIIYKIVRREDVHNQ", "T1 sequence (P23415+P48167 fused with the stated changes)": "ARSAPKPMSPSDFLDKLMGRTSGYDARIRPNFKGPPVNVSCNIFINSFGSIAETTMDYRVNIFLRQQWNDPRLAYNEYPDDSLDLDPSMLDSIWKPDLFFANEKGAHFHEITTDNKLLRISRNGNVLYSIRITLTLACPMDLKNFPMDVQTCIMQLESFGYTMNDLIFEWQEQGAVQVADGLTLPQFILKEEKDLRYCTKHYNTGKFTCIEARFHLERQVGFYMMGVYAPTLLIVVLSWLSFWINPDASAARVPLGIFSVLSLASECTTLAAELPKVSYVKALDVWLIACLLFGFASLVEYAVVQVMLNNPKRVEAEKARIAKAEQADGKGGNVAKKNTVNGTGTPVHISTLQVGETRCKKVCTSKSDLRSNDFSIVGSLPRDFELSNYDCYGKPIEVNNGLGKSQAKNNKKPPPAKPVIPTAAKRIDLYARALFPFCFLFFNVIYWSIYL", "procedure": "(§1) The human GlyR α1 and β subunit cDNAs were subcloned into the pcDNA3.1zeo+ (Invitrogen) or pGEMHE [44] plasmid vectors for expression in HEK293 cells or Xenopus oocytes, respectively. Site-directed mutagenesis and chimera construction were performed using the QuickChange (Stratagene, La Jolla, CA, USA) mutagenesis and multiple-template-based sequential PCR protocols, respectively.\n(§2) The effects of the hyperekplexia-mimicking mutations, K24′A, V25′A and Y27′A, were examined on GlyRs expressed in HEK293 cells (ATCC). Details of the HEK293 cell culture, GlyR expression and electrophysiological recording of the HEK293 cells are described elsewhere. Briefly, HEK293 cells were maintained in DMEM supplemented with 10% fetal bovine serum. Cells were transfected using a calcium phosphate precipitation protocol. When co-transfecting the α1 together with the β or any other chimera subunits, their respective cDNAs were combined in a ratio of 1∶10. In addition, the pEGFP-N1 (Clontech) was co-transfected to facilitate identifying the transfected cells. […] Cells were treated with external Ringer's solution and internal CsCl solution [30]. Cells were voltage-clamped at −40 mV. When the heteromeric GlyRs were expressed, the picrotoxin sensitivity was tested to confirm that the majority of receptors are heteromers, [30].\n(§3) Results are expressed as mean±standard error of the mean of three or more independent experiments. […] Statistical significance was determined using the Student's t-test."}, "αWT α-βY27′A GlyR": {"molecular_target": "T2, αWT α-βY27′A GlyR (Homo sapiens, UniProt P23415+P48167, A277S/G282P/I253M/I257A/I264V/I268L/L252M/M248V/M255V/M274P/P278A/Q254G/S259T/Y250F/Y325A)", "T2 construct": "The α R218-Q219 and β R242-Q243 are also the joining sites for chimeras constructed between the ECD and TMD; expressed in transfected cells; host or cells: HEK293 cells (ATCC), pcDNA3.1zeo+", "T2 sequence (P23415 29-449 isoform P23415-2, stated change not applied)": "as the sequence (P23415 29-449 isoform P23415-2, stated change not applied) above", "T2 sequence (P23415+P48167 fused with the stated changes)": "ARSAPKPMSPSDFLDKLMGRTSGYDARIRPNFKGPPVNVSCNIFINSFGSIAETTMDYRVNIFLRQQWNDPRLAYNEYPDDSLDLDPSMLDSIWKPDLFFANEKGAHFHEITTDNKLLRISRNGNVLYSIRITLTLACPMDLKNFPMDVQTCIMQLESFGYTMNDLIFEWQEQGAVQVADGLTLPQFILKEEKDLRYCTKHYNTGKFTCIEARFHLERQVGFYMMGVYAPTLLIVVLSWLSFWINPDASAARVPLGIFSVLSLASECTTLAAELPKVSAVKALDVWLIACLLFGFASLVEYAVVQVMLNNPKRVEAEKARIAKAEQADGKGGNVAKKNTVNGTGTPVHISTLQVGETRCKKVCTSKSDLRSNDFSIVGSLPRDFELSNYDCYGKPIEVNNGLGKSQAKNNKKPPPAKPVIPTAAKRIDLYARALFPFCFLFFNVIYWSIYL", "procedure": "as §1, §2, §3"}, "αWT αB-βWT GlyR": {"molecular_target": "T3, αWT αB-βWT GlyR (Homo sapiens, UniProt P23415+P48167, A165S/A240V/A277S/A316I/A325S/A80Q/DEL290-297/E245R/G282P/H243T/I181K/I238V/I253M/I257A/I264V/I268L/I311L/I313V/INS301ECTTLAAE/K171T/L252M/L327V/M168L/M248V/M255V/M274P/M315L/N172L/P278A/Q254G/R241I/R299L/S259T/S324A/T179R/T286F/T287S/V177T/V317A/V322G/Y250F)", "T3 construct": "expressed in transfected cells; host or cells: HEK293 (ATCC)", "T3 sequence (P23415 29-449 isoform P23415-2, stated change not applied)": "as the sequence (P23415 29-449 isoform P23415-2, stated change not applied) above", "T3 sequence (P23415+P48167 fused with the stated changes)": "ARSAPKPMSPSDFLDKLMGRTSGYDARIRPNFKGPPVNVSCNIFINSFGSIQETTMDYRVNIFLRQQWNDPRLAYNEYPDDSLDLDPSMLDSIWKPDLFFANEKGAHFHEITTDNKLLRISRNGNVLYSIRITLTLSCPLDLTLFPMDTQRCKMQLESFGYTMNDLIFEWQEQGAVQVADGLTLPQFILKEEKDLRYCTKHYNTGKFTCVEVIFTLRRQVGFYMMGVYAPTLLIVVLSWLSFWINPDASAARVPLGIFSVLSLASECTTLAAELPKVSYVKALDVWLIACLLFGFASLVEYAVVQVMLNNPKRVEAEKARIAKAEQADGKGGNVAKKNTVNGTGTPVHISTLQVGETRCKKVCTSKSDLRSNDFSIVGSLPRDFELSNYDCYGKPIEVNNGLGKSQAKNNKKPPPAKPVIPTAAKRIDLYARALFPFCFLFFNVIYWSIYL", "procedure": "as §1, §2, §3"}, "αK24′A α-βWT GlyR": {"molecular_target": "T4, αK24′A α-βWT GlyR (Homo sapiens, UniProt P23415+P48167, K304A)", "T4 construct": "The α R218-Q219 and β R242-Q243 are also the joining sites for chimeras constructed between the ECD and TMD; expressed in transfected cells; host or cells: HEK293 (ATCC)", "procedure": "as §1, §2, §3"}, "αK24′A β-αWT GlyR": {"molecular_target": "T5, αK24′A β-αWT GlyR (Homo sapiens, UniProt P23415+P48167, K304A)", "T5 construct": "The α R218-Q219 and β R242-Q243 are also the joining sites for chimeras constructed between the ECD and TMD; expressed in transfected cells; host or cells: HEK293 (ATCC)", "T5 sequence (P23415 29-449 isoform P23415-2 K304A)": "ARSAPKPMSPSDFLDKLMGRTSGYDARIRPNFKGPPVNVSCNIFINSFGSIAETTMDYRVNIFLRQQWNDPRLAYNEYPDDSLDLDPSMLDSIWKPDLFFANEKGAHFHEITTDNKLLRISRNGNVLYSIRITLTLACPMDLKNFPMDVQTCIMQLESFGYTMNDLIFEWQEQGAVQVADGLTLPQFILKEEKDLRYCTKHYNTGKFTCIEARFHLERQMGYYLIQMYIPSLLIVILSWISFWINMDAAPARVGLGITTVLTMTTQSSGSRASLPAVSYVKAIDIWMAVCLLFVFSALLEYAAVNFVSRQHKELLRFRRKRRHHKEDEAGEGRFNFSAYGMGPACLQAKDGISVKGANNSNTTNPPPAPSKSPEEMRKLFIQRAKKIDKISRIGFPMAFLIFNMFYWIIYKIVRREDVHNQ", "T5 sequence (P48167+P23415 with tags, fused parts or gaps P48167:V266M/P48167:F268Y/P48167:M270L/P48167:M271I/P48167:G272Q/P48167:V273M/P48167:A275I/P48167:T277S/P48167:V282I/P48167:L286I/P48167:P292M/P48167:S295A/P48167:A296P/P48167:P300G)": "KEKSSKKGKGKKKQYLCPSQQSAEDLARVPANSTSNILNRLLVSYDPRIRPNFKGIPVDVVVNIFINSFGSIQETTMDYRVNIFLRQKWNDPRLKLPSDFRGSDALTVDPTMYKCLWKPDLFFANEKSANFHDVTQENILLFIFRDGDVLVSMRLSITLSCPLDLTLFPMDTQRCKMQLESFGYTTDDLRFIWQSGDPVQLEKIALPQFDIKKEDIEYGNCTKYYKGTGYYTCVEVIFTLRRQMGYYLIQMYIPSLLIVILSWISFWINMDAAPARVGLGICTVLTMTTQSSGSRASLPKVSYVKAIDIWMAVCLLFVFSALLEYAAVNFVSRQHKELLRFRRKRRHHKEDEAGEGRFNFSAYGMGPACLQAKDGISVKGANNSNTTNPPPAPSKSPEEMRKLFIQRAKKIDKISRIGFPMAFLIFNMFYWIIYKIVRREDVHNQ", "procedure": "as §1\nFor the β-α chimeras used for determining the effect of hyperekplexia-mimicking mutations on α1 β GlyR channel function, the Thr at the M2 6′ position was replaced by a Cys. […] Through such a modification, picrotoxin resistance was used to distinguish the heteromeric α1 β-α GlyR from the homomeric α1 GlyR when the α1 and β-α subunits were co-expressed.\nas §2, §3"}, "[1]": {"conditions": "αWT α-βWT, HEK293, with glycine at EC50 of α1 homomer"}, "[2]": {"conditions": "αWT α-βY27′A, HEK293, with glycine at EC50 of α1 homomer"}, "[3]": {"conditions": "αWT αB-βWT, HEK293, with glycine at EC50 of α1 homomer"}, "[4]": {"conditions": "αK24′A α-βWT, HEK293, with glycine at EC50 of α1 homomer"}, "[5]": {"conditions": "αK24′A β-αWT, HEK293, with glycine at EC50 of α1 homomer"}},
  "data": [
    {"compound": "picrotoxin [PTX]", "values": [
      {"measurement": "10uM PTX inhibition (%)", "setting": "αWT α-βWT GlyR; [1]", "result": "3.8±2.2", "unit": "%"},
      {"measurement": "100uM PTX inhibition (%)", "setting": "αWT α-βWT GlyR; [1]", "result": "25±2", "unit": "%"},
      {"measurement": "10uM PTX inhibition (%)", "setting": "αWT α-βY27′A GlyR; [2]", "result": "4.9±0.3", "unit": "%"},
      {"measurement": "100uM PTX inhibition (%)", "setting": "αWT α-βY27′A GlyR; [2]", "result": "39±5", "unit": "%"},
      {"measurement": "10uM PTX inhibition (%)", "setting": "αWT αB-βWT GlyR; [3]", "result": "4.8±0.9", "unit": "%"},
      {"measurement": "100uM PTX inhibition (%)", "setting": "αWT αB-βWT GlyR; [3]", "result": "33±4", "unit": "%"},
      {"measurement": "10uM PTX inhibition (%)", "setting": "αK24′A α-βWT GlyR; [4]", "result": "4.8±0.7", "unit": "%"},
      {"measurement": "100uM PTX inhibition (%)", "setting": "αK24′A α-βWT GlyR; [4]", "result": "26±5", "unit": "%"},
      {"measurement": "10uM PTX inhibition (%)", "setting": "αK24′A β-αWT GlyR; [5]", "result": "10.0±2.2", "unit": "%"},
      {"measurement": "100uM PTX inhibition (%)", "setting": "αK24′A β-αWT GlyR; [5]", "result": "23±4", "unit": "%"}
    ]},
    {"compound": "NCC(=O)O", "note": "[glycine]", "values": [
      {"measurement": "Imax", "setting": "αWT α-βWT GlyR", "result": "4.3±0.7", "unit": "nA"},
      {"measurement": "nH", "setting": "αWT α-βWT GlyR", "result": "1.3±0.3"},
      {"measurement": "Imax", "setting": "αWT α-βY27′A GlyR", "result": "6.9±3.1", "unit": "nA"},
      {"measurement": "nH", "setting": "αWT α-βY27′A GlyR", "result": "1.3±0.3"},
      {"measurement": "Imax", "setting": "αWT αB-βWT GlyR", "result": "8.6±1.6", "unit": "nA"},
      {"measurement": "nH", "setting": "αWT αB-βWT GlyR", "result": "1.8±0.4"},
      {"measurement": "Imax", "setting": "αK24′A α-βWT GlyR", "result": "7.2±0.9", "unit": "nA"},
      {"measurement": "nH", "setting": "αK24′A α-βWT GlyR", "result": "1.0±0.1"},
      {"measurement": "Imax", "setting": "αK24′A β-αWT GlyR", "result": "8.9±1.9", "unit": "nA"},
      {"measurement": "nH", "setting": "αK24′A β-αWT GlyR", "result": "2.0±0.3"}
    ]}
  ]
}
